We go through 1 compound from US5506102A (priority 1993, dated 1996).

For the assay, the target named is T1, glucocorticoid receptor (GR) (Homo sapiens, UniProt P04150).
T1 sequence (P04150 1-777): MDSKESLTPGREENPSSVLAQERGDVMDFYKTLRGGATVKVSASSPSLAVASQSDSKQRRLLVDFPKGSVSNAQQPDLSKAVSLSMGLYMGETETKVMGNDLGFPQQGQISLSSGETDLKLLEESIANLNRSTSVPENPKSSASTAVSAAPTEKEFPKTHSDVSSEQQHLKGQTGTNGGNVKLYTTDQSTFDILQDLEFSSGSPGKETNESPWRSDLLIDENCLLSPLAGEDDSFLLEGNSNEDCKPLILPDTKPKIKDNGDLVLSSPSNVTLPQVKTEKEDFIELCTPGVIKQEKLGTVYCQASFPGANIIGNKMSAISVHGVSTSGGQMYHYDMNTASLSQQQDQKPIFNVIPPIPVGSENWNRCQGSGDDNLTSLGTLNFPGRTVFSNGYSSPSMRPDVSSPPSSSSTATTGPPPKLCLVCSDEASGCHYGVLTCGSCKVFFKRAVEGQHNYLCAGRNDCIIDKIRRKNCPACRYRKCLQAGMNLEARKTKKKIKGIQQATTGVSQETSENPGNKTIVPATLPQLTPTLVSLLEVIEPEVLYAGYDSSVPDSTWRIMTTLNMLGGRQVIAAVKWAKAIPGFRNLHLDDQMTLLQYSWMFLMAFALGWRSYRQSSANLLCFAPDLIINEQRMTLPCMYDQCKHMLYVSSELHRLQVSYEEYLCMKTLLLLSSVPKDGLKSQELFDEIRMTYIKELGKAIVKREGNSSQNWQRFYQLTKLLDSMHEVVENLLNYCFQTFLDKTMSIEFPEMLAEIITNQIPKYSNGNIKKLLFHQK
As to conditions: high concentrations, dexamethasone present, FIG. 8B. As for the experimental part: Cells were seeded in 12-well, 96-well or 10 cm tissue culture plates. […] 20 μg of DNA/ml of transfection buffer were used in each transfection reaction. In this mix, the concentration of the luciferase plasmids and that of the internal control plasmid pCH110 (Pharmacia, Inc.), which contains the gene for the β-galactosidase enzyme, remained constant ([…] of each plasmid DNA), while the receptor plasmid concentration varied as indicated for each experiment. Different amounts of receptor parental plasmid, pSV2-neo (Dr. Bert O'Malley, Baylor College of Medicine, Houston, Tex.) was included to keep constant the total amount of the SV40 enhancer vectors. pGEM4 plasmid DNA (Promega Biotech, Madison, Wis.) was added to balance the total DNA concentration to 20 g/reaction. For the 96-well plate experiments, transfections were performed on a Biomek 1000 Automated Laboratory Workstation (Beckman Instruments, Fullerton, Calif.).
Cells were seeded 24 hours prior to transfection in the fiat-bottom tissue culture plates ([…]) in phenol red-free DMEM containing 10% FCS. […] Using calcium phosphate co-precipitation, DNA solution was added dropwise with vortexing into an equal volume of 2X HBS pH 6.9 (280 mM NaCl. 50 mM HEPES, 1.5 mM Na2 HPO4) and precipitates were allowed to form for 20 minutes. Cells were transfected ( […] of DNA mix/well) for 6 hours and then washed with phosphate-bufferedsaline (PBS) to remove the precipitate. Cells were incubated for an additional 24 hours in phenol red-free medium containing 10% charcoal-treated FCS, with or without hormones as indicated in the text. Cell extracts were prepared as described by Berger et al., Supra, and assayed for luciferase and β-galactosidase activities. All determinations were performed in triplicates in at least two independent experiments, and were normalized for transfection efficiency by using β-galactosidase as an internal control.

Regarding `CC#C[C@]1(O)CC[C@H]2[C@@H]3CCC4=CC(=O)CCC4=C3[C@@H](c3ccc(C(C)=O)cc3)C[C@@]21C` [ZK112993], the “direct inhibition of GR function” value was “directly inhibited GR function”.
